Values of other authors in patent US12064417B2, “Combination comprising a glucocorticoid and EDO-S101” (Purdue Pharmaceutical Products L.P., priority 2014, dated 2024).

System: multiple myeloma cell lines
Settings: in vitro, relative to bendamustin

Cn1c(CCCCCCC(=O)NO)nc2cc(N(CCCl)CCCl)ccc21 [EDO-S101]
activity greater than the activity shown by bendamustin: 35-100
